# In ChEMBL document CHEMBL1201862, “PubChem BioAssay data set” (2004):
#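 Each compound was tested at five concentrations against cells in 96-well plates for 48 hours. Abbreviation: GI50, concentration required for 50% inhibition of growth.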 Active and inactive are the calls of the source. Cut-off read from the data, not from the text of the source: active = GI50 up to about 1.1 µM and inactive = higher.
# Experiments:
# Test in all cases: NCI-60 cell line screen, 48 h
# SF-539 = system: SF-539
# XF498 = system: XF498
# U-251 = system: U-251
# RPMI-8226 = system: RPMI-8226
# LOX IMVI = system: LOX IMVI
# OVCAR-8 = system: OVCAR-8
# HCC 2998 = system: HCC 2998
# CCRF-CEM = system: CCRF-CEM
# TK-10 = system: TK-10
# KM12 = system: KM12
# SF-295 = system: SF-295
# NCI-H23 = system: NCI-H23
# HCT-15 = system: HCT-15
# RXF 393 = system: RXF 393
# HL-60 = system: HL-60
# ACHN = system: ACHN
# SF-268 = system: SF-268
# M14 = system: M14
# NCI-H522 = system: NCI-H522
# SK-MEL-5 = system: SK-MEL-5
# EKVX = system: EKVX
# OVCAR-4 = system: OVCAR-4
# COLO 205 = system: COLO 205
# HOP-62 = system: HOP-62
# OVCAR-3 = system: OVCAR-3
# NCI-H460 = system: NCI-H460
# OVCAR-5 = system: OVCAR-5
# LXFL 529 = system: LXFL 529
# SK-MEL-28 = system: SK-MEL-28
# SW-620 = system: SW-620
# DMS-114 = system: DMS-114
# K562 = system: K562
# Malme-3M = system: Malme-3M
# KM-20L2 = system: KM-20L2
# CAKI-1 = system: CAKI-1
# HOP-18 = system: HOP-18
# MOLT-4 = system: MOLT-4
# HCT-116 = system: HCT-116
# SN12C = system: SN12C
# UO-31 = system: UO-31
# SNB-78 = system: SNB-78
# NCI-H226 = system: NCI-H226
# IGROV-1 = system: IGROV-1
# A498 = system: A498
# M19-MEL = system: M19-MEL
# UACC-62 = system: UACC-62
# SNB-75 = system: SNB-75
# SNB-19 = system: SNB-19
# A549 = system: A549
# DLD-1 = system: DLD-1
# 786-0 = system: 786-0
# HOP-92 = system: HOP-92
# SK-OV-3 = system: SK-OV-3
# SK-MEL-2 = system: SK-MEL-2
# UACC-257 = system: UACC-257
# DMS-273 = system: DMS-273
# HT-29 = system: HT-29
# MDA-N = system: MDA-N
# MDA-MB-435 = system: MDA-MB-435
# SR = system: SR
# MDA-MB-231 = system: MDA-MB-231
# T47D = system: T47D
# MCF7 = system: MCF7
# BT-549 = system: BT-549
# NCI/ADR-RES = system: NCI/ADR-RES
# DU-145 = system: DU-145
# Hs-578T = system: Hs-578T
# PC-3 = system: PC-3
smiles,measurement,setting,value
CCN(C(C)=N)c1ccccc1,GI50,SF-539,> 100 µM (inactive)
same,GI50,XF498,> 100 µM (inactive)
same,GI50,U-251,> 100 µM (inactive)
same,GI50,RPMI-8226,27 µM (inactive)
same,GI50,LOX IMVI,> 100 µM (inactive)
same,GI50,OVCAR-8,> 100 µM (inactive)
same,GI50,HCC 2998,> 100 µM (inactive)
same,GI50,CCRF-CEM,> 100 µM (inactive)
same,GI50,TK-10,> 100 µM (inactive)
same,GI50,KM12,> 100 µM (inactive)
same,GI50,SF-295,43.5 µM (inactive)
same,GI50,NCI-H23,54.8 µM (inactive)
same,GI50,HCT-15,> 100 µM
same,GI50,RXF 393,> 100 µM (inactive)
same,GI50,HL-60,32.8 µM (inactive)
same,GI50,ACHN,61.5 µM (inactive)
same,GI50,SF-268,> 100 µM (inactive)
same,GI50,M14,> 100 µM (inactive)
same,GI50,NCI-H522,50.2 µM (inactive)
same,GI50,SK-MEL-5,35.1 µM (inactive)
same,GI50,EKVX,52.8 µM (inactive)
same,GI50,OVCAR-4,66.8 µM (inactive)
same,GI50,COLO 205,> 100 µM (inactive)
same,GI50,HOP-62,66.4 µM (inactive)
same,GI50,OVCAR-3,> 100 µM (inactive)
same,GI50,NCI-H460,> 100 µM (inactive)
same,GI50,OVCAR-5,> 100 µM (inactive)
same,GI50,LXFL 529,75.9 µM (inactive)
same,GI50,SK-MEL-28,68.4 µM (inactive)
same,GI50,SW-620,> 100 µM (inactive)
same,GI50,DMS-114,36.5 µM (inactive)
same,GI50,K562,43.6 µM (inactive)
same,GI50,Malme-3M,> 100 µM (inactive)
same,GI50,KM-20L2,> 100 µM (inactive)
same,GI50,CAKI-1,95.1 µM (inactive)
same,GI50,HOP-18,> 100 µM (inactive)
same,GI50,MOLT-4,72.6 µM (inactive)
same,GI50,HCT-116,48.9 µM (inactive)
same,GI50,SN12C,70 µM (inactive)
same,GI50,UO-31,39 µM (inactive)
same,GI50,SNB-78,> 100 µM (inactive)
same,GI50,NCI-H226,56.8 µM (inactive)
same,GI50,IGROV-1,> 100 µM (inactive)
same,GI50,A498,37.5 µM (inactive)
same,GI50,M19-MEL,95.5 µM (inactive)
same,GI50,UACC-62,> 100 µM (inactive)
same,GI50,SNB-75,37.5 µM (inactive)
same,GI50,SNB-19,78.7 µM (inactive)
same,GI50,A549,> 100 µM (inactive)
same,GI50,DLD-1,> 100 µM (inactive)
same,GI50,786-0,> 100 µM (inactive)
same,GI50,HOP-92,60.4 µM (inactive)
same,GI50,SK-OV-3,> 100 µM (inactive)
same,GI50,SK-MEL-2,> 100 µM (inactive)
same,GI50,UACC-257,17.2 µM (inactive)
COc1ccc(/C=C/C(=O)c2c(-c3ccccc3)nn(C)c(=O)c2N2CCCC2)cc1,GI50,SF-539,69.2 µM (inactive)
same,GI50,XF498,> 100 µM (inactive)
same,GI50,U-251,> 100 µM (inactive)
same,GI50,DMS-273,> 100 µM (inactive)
same,GI50,RPMI-8226,> 100 µM (inactive)
same,GI50,LOX IMVI,> 100 µM (inactive)
same,GI50,OVCAR-8,> 100 µM (inactive)
same,GI50,CCRF-CEM,> 100 µM (inactive)
same,GI50,TK-10,> 100 µM (inactive)
same,GI50,SF-295,70.5 µM (inactive)
same,GI50,HCT-15,> 100 µM
same,GI50,HL-60,20.9 µM (inactive)
same,GI50,ACHN,> 100 µM (inactive)
same,GI50,SF-268,87.3 µM (inactive)
same,GI50,M14,> 100 µM (inactive)
same,GI50,SK-MEL-5,> 100 µM (inactive)
same,GI50,EKVX,> 100 µM (inactive)
same,GI50,COLO 205,> 100 µM (inactive)
same,GI50,NCI-H460,> 100 µM (inactive)
same,GI50,LXFL 529,> 100 µM (inactive)
same,GI50,SK-MEL-28,> 100 µM (inactive)
same,GI50,SW-620,> 100 µM (inactive)
same,GI50,DMS-114,> 100 µM (inactive)
same,GI50,K562,57.3 µM (inactive)
same,GI50,KM-20L2,> 100 µM (inactive)
same,GI50,HOP-18,> 100 µM (inactive)
same,GI50,MOLT-4,36.9 µM (inactive)
same,GI50,HCT-116,87.9 µM (inactive)
same,GI50,SN12C,> 100 µM (inactive)
same,GI50,UO-31,> 100 µM (inactive)
same,GI50,IGROV-1,> 100 µM (inactive)
same,GI50,A498,> 100 µM (inactive)
same,GI50,HT-29,> 100 µM (inactive)
same,GI50,M19-MEL,> 100 µM (inactive)
same,GI50,UACC-62,> 100 µM (inactive)
same,GI50,A549,> 100 µM (inactive)
same,GI50,DLD-1,> 100 µM (inactive)
same,GI50,786-0,82 µM (inactive)
same,GI50,HOP-92,3.69 µM (inactive)
same,GI50,SK-OV-3,> 100 µM (inactive)
COc1nc(NC2OC(COC(C)=O)C(OC(C)=O)C(OC(C)=O)C2OC(C)=O)c(/N=C/C=N/c2c(NC3OC(COC(C)=O)C(OC(C)=O)C(OC(C)=O)C3OC(C)=O)nc(OC)n(C)c2=O)c(=O)n1C (stereo unspecified),GI50,SF-539,> 100 µM (inactive)
same,GI50,XF498,44.2 µM (inactive)
same,GI50,U-251,30.5 µM (inactive)
same,GI50,RPMI-8226,> 100 µM (inactive)
same,GI50,LOX IMVI,> 100 µM (inactive)
same,GI50,OVCAR-8,> 100 µM (inactive)
same,GI50,HCC 2998,> 100 µM (inactive)
same,GI50,CCRF-CEM,> 100 µM (inactive)
same,GI50,MDA-N,> 100 µM (inactive)
same,GI50,MDA-MB-435,> 100 µM (inactive)
same,GI50,TK-10,56.4 µM (inactive)
same,GI50,KM12,> 100 µM (inactive)
same,GI50,SF-295,49.2 µM (inactive)
same,GI50,NCI-H23,> 100 µM (inactive)
same,GI50,HCT-15,> 100 µM
same,GI50,RXF 393,30.5 µM (inactive)
same,GI50,HL-60,> 100 µM (inactive)
same,GI50,ACHN,> 100 µM (inactive)
same,GI50,SF-268,> 70.3 µM (inactive)
same,GI50,M14,> 100 µM (inactive)
same,GI50,NCI-H522,> 100 µM (inactive)
same,GI50,SR,> 100 µM (inactive)
same,GI50,MDA-MB-231,> 100 µM (inactive)
same,GI50,SK-MEL-5,> 100 µM (inactive)
same,GI50,EKVX,> 100 µM (inactive)
same,GI50,T47D,> 100 µM (inactive)
same,GI50,OVCAR-4,> 100 µM (inactive)
same,GI50,COLO 205,> 100 µM (inactive)
same,GI50,MCF7,> 100 µM (inactive)
same,GI50,HOP-62,28.1 µM (inactive)
same,GI50,OVCAR-3,> 100 µM (inactive)
same,GI50,BT-549,> 100 µM (inactive)
same,GI50,NCI/ADR-RES,> 100 µM (inactive)
same,GI50,NCI-H460,> 100 µM (inactive)
same,GI50,OVCAR-5,> 100 µM (inactive)
same,GI50,DU-145,> 100 µM (inactive)
same,GI50,LXFL 529,> 100 µM (inactive)
same,GI50,SK-MEL-28,> 100 µM (inactive)
same,GI50,SW-620,> 100 µM (inactive)
same,GI50,DMS-114,> 100 µM (inactive)
same,GI50,K562,> 100 µM (inactive)
same,GI50,Malme-3M,> 100 µM (inactive)
same,GI50,KM-20L2,> 100 µM (inactive)
same,GI50,CAKI-1,> 100 µM (inactive)
same,GI50,HOP-18,> 100 µM (inactive)
same,GI50,MOLT-4,> 100 µM (inactive)
same,GI50,HCT-116,> 100 µM (inactive)
same,GI50,SN12C,> 100 µM (inactive)
same,GI50,UO-31,> 100 µM (inactive)
same,GI50,NCI-H226,97.5 µM (inactive)
same,GI50,IGROV-1,> 100 µM (inactive)
same,GI50,A498,> 100 µM (inactive)
same,GI50,Hs-578T,28.3 µM (inactive)
same,GI50,HT-29,> 100 µM (inactive)
same,GI50,M19-MEL,> 100 µM (inactive)
same,GI50,UACC-62,> 100 µM (inactive)
same,GI50,SNB-75,17 µM (inactive)
same,GI50,SNB-19,48.4 µM (inactive)
same,GI50,A549,> 100 µM (inactive)
same,GI50,DLD-1,> 100 µM (inactive)
same,GI50,786-0,51.5 µM (inactive)
same,GI50,PC-3,> 100 µM (inactive)
same,GI50,HOP-92,39 µM (inactive)
same,GI50,SK-OV-3,> 88.3 µM (inactive)
same,GI50,SK-MEL-2,> 100 µM (inactive)
same,GI50,UACC-257,> 100 µM (inactive)
